In US12351830B2, “Method for maintaining and amplifying colon cancer stem cells and method for inducing colon cancer organoid” (NATIONAL UNIVERSITY CORPORATION KOBE UNIVERSITY, priority 2017, dated 2025):

Tests used:
Type in all cases: cell-based, human
[1] = test system: 2nd V50-OKS cells; assay: flat plane adhesion culture of induced colon cancer stem cells, cell count and morphology; settings: for effect in flat plane adhesion culture (morphology, number of cells): VPA 1 mM, CHIR99021 3 μM, 5 days
Protocol: A human colon cancer cell line (SW480) and Plat-A amphotropic retrovirus packaging cells were obtained from the ATCC collection and Cell Biolabs (San Diego, CA, USA), respectively. Both cells were maintained in Dulbecco's modified Eagle's medium (DMEM) (Nacalai Tesque, Kyoto, Japan) supplemented with 10% fetal bovine serum (FBS) (Life Technologies) and penicillin (100 Units/ml) and streptomycin (100 μg/ml) (Life Technologies) at 37° C. in a humidified 5% […] incubator. In Plat-A culture, 1 μg/ml of puromycin (Nacalai Tesque) and 10 μg/ml of blasticidin (Funakoshi) were added. HUVECs (Lonza) and human MSCs (Lonza) were maintained in endothelial growth medium (Lonza) at 37° C. in a humidified 5% CO2 incubator. The cells were treated with FK506 (Sigma, 25 μM), VPA (WAKO, 1 mM) or CHIR99021 (Funakoshi, 3 μM) for 5 days. Thereafter, the cells were detached from the culture dish by an enzyme treatment, dispersed and the number of the cells was counted with Countess system (Invitrogen). The human induced pluripotent stem (hiPS) cells used as a control were generated from human peripheral blood mononuclear cells in the laboratory.
Culture of SW480 cells after introduction of reprogramming factor, isolation of induced colon cancer stem cell (hereinafter to be also referred to as “colon iCSC”)-enriched cell population and induction of colon cancer organoid were performed according to the schedule described in FIG. 6. Establishing culture of colon iCSC and sorting of colon iCSC-enriched cell population were performed according to the method described in the above-mentioned non-patent document 3 (flow cytometry utilizing Hoechst33342 eliminating ability in the presence of 50 μM verapamil). Hereinafter colon iCSC-enriched cell population (cell population not labeled with Hoechst33342 in the presence of 50 μM verapamil; V50 cell) obtained by the first sorting is sometimes to be abbreviated as 1st V50 cell (or 1st V50-OKS cell), and the V50 cell obtained by the second sorting is sometimes to be abbreviated as 2nd V50 cell (or 2nd V50-OKS cell). On the other hand, the cell population labeled with Hoechst33342 in the presence of 50 μM verapamil is sometimes to be abbreviated as non V50cell or non V50-OKS cell. Colon cancer organoid was induced by the method described in the below-mentioned sphere formation assay.
SW480 cells or 2nd V50 cells were subjected to flat plane adhesion culture in the presence of FK506 (Sigma) for 5-15 days, and the cell number was counted with Countess (Invitrogen) system. Alternatively, the cells were subjected to flat plane adhesion culture in the presence of FK506, and then suspension culture in the presence or absence of FK506 to form spheres. The sphere number was counted with Countess (Invitrogen) system. Unless otherwise specified, FK506 was used at a concentration of 25 μM in this Example.
Duplexed Stealth siRNA (Invitrogen) were used for reference examples and were transduced to the cells according to the manufacturer's protocol.

[2] = test system: 2nd V50-OKS-SW480 cells; assay: 5-FU-chemoresistance analysis; settings: 1 and 50 μg/ml 5-FU, 72 hr, relative to cells without 5-FU, n=3
Protocol: A total of 6×10^4 cells were seeded in 12-well plates with DMEM containing 0, 1, 50 μg/ml of 5-fluorouracil (5-FU, Kyowa Kirin) respectively. After incubation for 72 hr, the cell viability after 5-FU exposure was measured by the Countess (Invitrogen) system.

[3] = test system: 2nd V50 cells; assay: colony formation assay; settings: 1 mM VPA, 3 μM CHIR or 25 μM FK506, day 12
Protocol: 2nd VP50 cells produced by 3 independent experiments were seeded in a 6 well plate at a density of 2×10^3 cells/well. The next day, the medium was changed to a medium not added with the compound, or a medium added with 1 mM VPA, 3 μM CHIR or 25 μM FK506. Thereafter, the medium was changed every 2 days or 3 days. On day 12, the cells were fixed with methanol, stained with crystal violet and the colonies were counted using a stereoscopic microscope.

[4] = test system: NFATc3-GFP; assay: localization of NFATc3-GFP in 2nd V50-OKS cells; settings: 2nd V50-OKS cells treated with compound
From the text: Retroviral vectors separately encoding OCT3/4, SOX2 or KLF4 in pMXs based vectors (pMXs-OCT3/4, pMXs-SOX2, pMXs-KLF4) were obtained from Addgene. Therefore, using these vectors, the polycistronic retroviral vector encoding OCT3/4, KLF4 and SOX2 (pMXs-OKS) was designed. That is, human OCT3/4, KLF4 and SOX2 were amplified by polymerase chain reaction (PCR) with primers containing the 2A sequences of Thosea asigna virus (T2A) and cloned into EcoRI site of pMXs vector using the In-fusion HD cloning system (Clontech). To generate pMXs-NFATc3-GFP construct, NFATc3-GFP cDNA were PCR amplified using HA-NFAT4 (3-407)-GFP (purchased from Addgene #21664) as a template and cloned into EcoRI-Notl site of pMXs-vector).
Finally, the cellular localization of NFAT after the treatment of FK506, VPA and CHIR in the iCSCs was examined. NFATc3 fused to green fluorescent protein (NFATc3-GFP; Aramburu J, et al., Science, 1999; 285:2129-33, Peuker K, et al., Nat Med, 2016, 22:506-15) was retrovirally introduced into 2nd V50-OKS cells. In the 2nd V50-OKS cells without any compounds and those with FK506, it was observed that NFATc3-GFP localized in the cytoplasm. In contrast, localization of NFATc3-GFP was found in the nuclei of the 2nd V50-OKS cells treated with VPA and CHIR (FIG. 16). […] This is opposite to inhibition of calcineurin via cytoplasm-nuclear translocation of NFAT.

[5] = test system: 2nd V50-OKS cells; assay: sphere formation assay, induced colon cancer stem cells; settings: VPA 1 mM, CHIR99021 3 μM, 10 days
Protocol: The cells were transferred to Ultra Low Attachment plates (Corning) in serum-free DMEM containing 10 ng/ml bFGF (WAKO), 10 μg/ml human insulin (CST), 100 μg/ml human transferrin (Roche) and 100 μg/ml BSA (Nacalai Tesque), and incubated at 37° C. in a 5% CO2 incubator for 10 days. The sphere count was calculated based on the sphere size which was larger than 100 μm. FK506 (25 μM), VPA (1 mM) or CHIR99021 (3 μM) were added to the medium and the spheres were then treated for 10 days. SW480 cells or 2nd V50 cells were subjected to flat plane adhesion culture in the presence of FK506 (Sigma) for 5-15 days, and the cell number was counted with Countess (Invitrogen) system. Alternatively, the cells were subjected to flat plane adhesion culture in the presence of FK506, and then suspension culture in the presence or absence of FK506 to form spheres. The sphere number was counted with Countess (Invitrogen) system. Unless otherwise specified, FK506 was used at a concentration of 25 μM in this Example.

**Q.** `C=CC[C@@H]1/C=C(\C)C[C@H](C)C[C@H](OC)[C@H]2O[C@@](O)(C(=O)C(=O)N3CCCC[C@H]3C(=O)O[C@H](/C(C)=C/[C@@H]3CC[C@@H](O)[C@H](OC)C3)[C@H](C)[C@@H](O)CC1=O)[C@H](C)C[C@@H]2OC` [FK506, FK506 (tacrolimus)] was tested. Which “effect on the cell number” value ([1]; 2nd V50-OKS cultures, FK506 25 μM, 5 days after passage) did it give?
**A.** no significant effect

**Q.** What about the “total cell number amplification” value ([1]; 2nd V50 cells adhesion cultured with FK506, 10 days) of the same molecule?
**A.** about 100 times

**Q.** What about the “total cell number amplification” value ([1]; 2nd V50 cells adhesion cultured with FK506, 15 days) of the same molecule?
**A.** about 1000 times

**Q.** With `O=c1[nH]cc(F)c(=O)[nH]1` [5-FU, 5-fluorouracil] as the molecule, how does the “viability of 2nd V50-OKS-SW480 cells in the presence of 5-FU compared with parental SW480 cells” value [2] read?
**A.** significantly higher

**Q.** Which “number of secondary dome-shaped colonies” value [3] does the source give for `CCCC(CCC)C(=O)O` [VPA, valproic acid] here?
**A.** decreased

**Q.** What about the “cellular localization of NFATc3-GFP” value [4] of the same molecule?
**A.** nuclei

**Q.** And the “effect in flat plane adhesion culture (morphology, number of cells)” value [1]?
**A.** the same effect as siRNA

**Q.** And the sphere forming ability [5]?
**A.** significantly suppressed

**Q.** Which results are given for `Cc1c[nH]c(-c2cnc(NCCNc3ccc(C#N)cn3)nc2-c2ccc(Cl)cc2Cl)n1` [CHIR99021]?
**A.** number of secondary dome-shaped colonies [3]: decreased; cellular localization of NFATc3-GFP [4]: nuclei; effect in flat plane adhesion culture (morphology, number of cells) [1]: the same effect as siRNA; sphere forming ability [5]: significantly suppressed
